Consider 5 molecules from ChEMBL document CHEMBL4000217, “Structure-activity relationship of daptomycin analogues with substitution at (2S, 3R) 3-methyl glutamic acid position” (2017).

For the test, the system named is Staphylococcus aureus. Briefly: Antibacterial activity against Staphylococcus aureus isolate 42 […] by CLSI method. Type of test: functional.

≈ marks a conversion by molar mass, not a printed value.

The molecule `CCCCCCCCCC(=O)N[C@@H](Cc1c[nH]c2ccccc12)C(=O)N[C@H](CC(N)=O)C(=O)N[C@@H](CC(=O)O)C(=O)N[C@@H]1C(=O)NCC(=O)N[C@@H](CCCN)C(=O)N[C@@H](CC(=O)O)C(=O)N[C@H](C)C(=O)N[C@@H](CC(=O)O)C(=O)NCC(=O)N[C@H](CO)C(=O)N[C@@H]([C@H](C)CC(=O)O)C(=O)N[C@@H](CC(=O)c2ccccc2N)C(=O)O[C@@H]1C` yielded an MIC of 0.5 µg/mL (≈ 0.309 µM).

Turning to `CCCCCCCCCC(=O)N[C@@H](Cc1c[nH]c2ccccc12)C(=O)N[C@@H](CC(N)=O)C(=O)N[C@@H](CC(=O)O)C(=O)N[C@@H]1C(=O)NCC(=O)N[C@@H](CCCN)C(=O)N[C@@H](CC(=O)O)C(=O)N[C@H](C)C(=O)N[C@@H](CC(=O)O)C(=O)NCC(=O)N[C@H](CO)C(=O)N[C@@H]([C@H](CC)CC(=O)O)C(=O)N[C@@H](CC(=O)c2ccccc2N)C(=O)O[C@@H]1C`, the MIC amounted to 8 µg/mL (≈ 4.89 µM).

`CCCCCCCCCC(=O)N[C@@H](Cc1c[nH]c2ccccc12)C(=O)N[C@@H](CC(N)=O)C(=O)N[C@@H](CC(=O)O)C(=O)N[C@@H]1C(=O)NCC(=O)N[C@@H](CCCN)C(=O)N[C@@H](CC(=O)O)C(=O)N[C@H](C)C(=O)N[C@@H](CC(=O)O)C(=O)NCC(=O)N[C@H](CO)C(=O)N[C@@H]([C@H](C)CC(N)=O)C(=O)N[C@@H](CC(=O)c2ccccc2N)C(=O)O[C@@H]1C`: the MIC stood at 32 µg/mL (≈ 19.8 µM).

For the molecule `CCCCCCCCCC(=O)N[C@@H](Cc1c[nH]c2ccccc12)C(=O)N[C@@H](CC(N)=O)C(=O)N[C@@H](CC(=O)O)C(=O)N[C@@H]1C(=O)NCC(=O)N[C@@H](CCCN)C(=O)N[C@@H](CC(=O)O)C(=O)N[C@H](C)C(=O)N[C@@H](CC(=O)O)C(=O)NCC(=O)N[C@H](CO)C(=O)N[C@@H](C(C)(C)CC(=O)O)C(=O)N[C@@H](CC(=O)c2ccccc2N)C(=O)O[C@@H]1C`, inhibition of growth (MIC) required 64 µg/mL (≈ 39.2 µM). Compared with the last molecule, the MIC is about 2-fold higher.

With `CCCCCCCCCC(=O)N[C@@H](Cc1c[nH]c2ccccc12)C(=O)N[C@@H](CC(N)=O)C(=O)N[C@@H](CC(=O)O)C(=O)N[C@@H]1C(=O)NCC(=O)N[C@@H](CCCN)C(=O)N[C@@H](CC(=O)O)C(=O)N[C@H](C)C(=O)N[C@@H](CC(=O)O)C(=O)NCC(=O)N[C@H](CO)C(=O)N[C@@H](C(C)CC(=O)O)C(=O)N[C@@H](CC(=O)c2ccccc2N)C(=O)O[C@@H]1C` (single isomer, unassigned) [DAPTOMYCIN], inhibition of growth (MIC) required 128 µg/mL (≈ 79 µM).
